Reference: patent US20240245736A1, “COMPOSITIONS AND METHODS FOR REDUCING BLOOD ALCOHOL CONTENT” (LIFE WELL LIVED, LLC, priority 2012, published 2024)

Test: BAC scores by breathalyzer and observed behavior in subjects who had voluntarily consumed alcohol, compared with projected BAC
Type: in vivo, human
Set-up: actual BAC score / actual BAC: unit not given here
Conditions: for signs of intoxication: twenty minutes after administration; for effect on the subject's BAC score, summary of the experiments: actual vs projected BAC over the course of the experiment; for change in BAC twenty minutes after administration: summary over subjects
Description: The following experiments involved subjects who voluntarily consumed alcoholic beverages. The subjects chose the type and amount of alcohol that was consumed, as well as the rate at which the alcohol was consumed. At the point when the subjects started to feel effects of their alcohol consumption and chose to stop consuming alcohol, the subjects voluntarily consumed a composition that contained a source of NAD+, Lactobacillus, Bifidobacterium, or a combination of two or more of those ingredients. Projected BAC scores were calculated approximately every twenty minutes using an online BAC calculator provided by the Wisconsin Department of Transportation, which provides a projected BAC based on factors such as the subject's weight, sex, alcohol consumed, rate of alcohol consumed, and food consumed. BAC scores were also quantitatively measured approximately every twenty minutes using a breathalyzer. The projected BAC score served as a negative control because it estimates the change in BAC that is expected to occur over time after a subject stops consuming alcohol. Changes in each subject's behavior were also observed over the course of the experiment.
The ingredients that were administered to the subjects are commercially available and sold for human consumption. In the following experiments, NAD+ was provided by administering 5 mL of Liquid CoQ10, which is made by NOW Foods and contains 5 mg NAD+ in the 5 mL dose. To administer Lactobacillus, the subjects were given two Culturelle® Health & Wellness capsules, each of which contains Lactobacillus GG (10 billion cells). To administer Bifidobacterium, subjects were given two capsules of Align® Bifantis® Bifidobacterium infantis 35624, which contain 1 billion cfu per capsule. To administer Lactobacillus and Bifidobacterium, subjects were given 1-2 capsules of Dr. Mercola's® Complete Probiotics capsules, each of which contains 35 billion cells including the following species: Lactobacillus acidophilus DDS-1, Lactobacillus casei, Lactobacillus plantarum, Lactobacillus salivarius, Lactobacillus rhamnosus, Lactobacillus brevis, Bifidobacterium lactis, Bifidobacterium longum, Bifidobacterium bifidum, and Streptococcus thermophilus. Subjects were also given 5 mg of zinc, which was provided in liquid form.

Compound: NC(=O)c1ccc[n+]([C@@H]2O[C@H](COP(=O)([O-])OP(=O)(O)OC[C@H]3O[C@@H](n4cnc5c(N)ncnc54)[C@H](O)[C@@H]3O)[C@@H](O)[C@H]2O)c1 [NAD+, nicotinamide adenine dinucleotide, reference compound]
- actual BAC score (FIG. 1, person, 198 pounds, beer and wine, 11:12, twenty minutes after administration, BAC at administration 0.089, projected 0.084): 0.082
- effect on the subject's BAC score, actual vs projected (FIG. 1 subject): no effect
- signs of intoxication (FIG. 1 subject): continued to exhibit signs of intoxication
- actual BAC score (FIG. 2, person, 188 pounds, beer, 11:12, twenty minutes after administration, BAC at administration 0.085, projected 0.085): 0.086
- effect on the subject's BAC score, actual vs projected (FIG. 2 subject): minimal or no effect
- signs of intoxication (FIG. 2 subject): continued to exhibit signs of intoxication
- actual BAC score (FIG. 3, person, 169 pounds, beer and vodka, 11:12, twenty minutes after administration, BAC at administration 0.086, projected 0.087): 0.086
- effect on the subject's BAC score, actual vs projected (FIG. 3 subject): little effect
- signs of intoxication (FIG. 3 subject): continued to exhibit signs of intoxication
- actual BAC (FIG. 9, person, 182 pounds, beer and vodka, 11:32, 40 minutes after NAD+ at 10:52 (BAC 0.088), before Lactobacillus and Bifidobacterium): 0.056
- effect on the subject's BAC score, summary of the experiments: no effect or only a minimal effect
- change in BAC twenty minutes after administration: increase in BAC

Compound: Bifidobacterium
- actual BAC (FIG. 7, person, 146 pounds, wine, 1:20, twenty minutes after administration, BAC at administration 0.159, projected 0.157): 0.151
- effect on the subject's BAC score, actual vs projected (FIG. 7 subject): little effect
- actual BAC (FIG. 8, person, 171 pounds, 12:40, twenty minutes after administration, BAC at administration 0.13, projected 0.132): 0.125
- effect on the subject's BAC score, actual vs projected (FIG. 8 subject): little effect
- effect on the subject's BAC score, summary of the experiments: no effect or only a minimal effect
- change in BAC twenty minutes after administration: increase in BAC

Compound: Lactobacillus
- actual BAC score (FIG. 4, person, 122 pounds, wine and vodka, 7:25, twenty minutes after administration, BAC at administration 0.086, projected 0.084): 0.082
- effect on the subject's BAC score, actual vs projected (FIG. 4 subject): no effect
- signs of intoxication (FIG. 4 subject): continued to exhibit signs of intoxication
- actual BAC score (FIG. 5, person, 155 pounds, beer and wine, 7:25, twenty minutes after administration, BAC at administration 0.13, projected 0.129): 0.12
- effect on the subject's BAC score, actual vs projected (FIG. 5 subject): little effect
- actual BAC score (FIG. 6, person, 169 pounds, beer and vodka, 7:25, twenty minutes after administration, BAC at administration 0.086, projected 0.074): 0.067
- effect on the subject's BAC score, actual vs projected (FIG. 6 subject): little effect
- effect on the subject's BAC score, summary of the experiments: no effect or only a minimal effect
- change in BAC twenty minutes after administration: increase in BAC
